Results reported in patent publication US11795171B2, “Pyrrolotriazinones and imidazotriazinones as ubiquitin-specific protease 7 inhibitors” (Valo Health, Inc., priority 2014, dated 2023).
pIC50: −log10 of the molar value.

These compounds were tested against USP7 (Homo sapiens (Human), UniProt Q93009) (assay: USP7 Assay B (Ubitquin-Rhodamine110 Assay)). Conditions: Ub-Rh110 substrate 25 nM.
Format: biochemical

Chain of USP7 (Q93009 208-1102): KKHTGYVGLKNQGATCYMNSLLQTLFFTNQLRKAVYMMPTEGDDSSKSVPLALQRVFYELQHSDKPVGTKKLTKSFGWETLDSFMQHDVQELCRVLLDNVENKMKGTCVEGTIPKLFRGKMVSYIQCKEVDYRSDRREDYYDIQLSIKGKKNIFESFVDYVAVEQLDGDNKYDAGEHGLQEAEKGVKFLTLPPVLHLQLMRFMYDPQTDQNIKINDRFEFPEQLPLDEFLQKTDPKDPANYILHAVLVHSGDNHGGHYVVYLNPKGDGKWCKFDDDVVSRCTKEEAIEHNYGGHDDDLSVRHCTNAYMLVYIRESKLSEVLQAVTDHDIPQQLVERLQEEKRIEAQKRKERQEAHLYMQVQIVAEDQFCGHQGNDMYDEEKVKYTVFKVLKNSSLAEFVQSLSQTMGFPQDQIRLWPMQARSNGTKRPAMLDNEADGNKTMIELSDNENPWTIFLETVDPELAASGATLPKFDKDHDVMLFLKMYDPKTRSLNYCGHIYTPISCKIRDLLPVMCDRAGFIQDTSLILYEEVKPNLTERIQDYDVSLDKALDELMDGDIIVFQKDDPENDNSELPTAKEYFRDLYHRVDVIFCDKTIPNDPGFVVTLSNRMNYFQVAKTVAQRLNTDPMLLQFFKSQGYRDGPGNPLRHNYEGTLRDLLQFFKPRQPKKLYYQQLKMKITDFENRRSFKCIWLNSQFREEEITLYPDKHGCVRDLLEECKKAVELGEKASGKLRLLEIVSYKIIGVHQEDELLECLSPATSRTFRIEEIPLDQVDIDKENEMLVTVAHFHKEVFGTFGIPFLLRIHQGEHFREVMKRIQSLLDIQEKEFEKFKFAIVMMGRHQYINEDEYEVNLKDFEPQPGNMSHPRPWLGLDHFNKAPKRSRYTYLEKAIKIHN

Question: How did the pIC50 turn out when `O=C(c1ccc(CN2CCCCC2)cc1Cl)N1CCC(O)(Cn2cnn3cccc3c2=O)CC1` [Compound I-75, 3-((1-(2-chloro-4-(piperidin-1-ylmethyl)benzoyl)-4-hydroxypiperidin-4-yl)methyl)pyrrolo[2,1-f][1,2,4]triazin-4(3H)-one] was run?
Answer: < 5.00

Question: How did the pIC50 turn out when `Cc1ccc2c(=O)n(CC3(O)CCN(C(=O)CC(C)c4ccccc4)CC3)cnn12` (centres unmarked) [Compound I-76, 3-((4-hydroxy-1-(3-phenylbutanoyl)piperidin-4-yl)methyl)-7-methylpyrrolo[2,1-f][1,2,4]triazin-4(3H)-one] was run?
Answer: 6.00 to 6.70

Question: With `Cc1ccc2c(=O)n(CC3(O)CCN(C(=O)C(C)Cc4ccccc4)CC3)cnn12` (centres unmarked) [Compound I-77, 3-((4-hydroxy-1-(2-methyl-3-phenylpropanoyl)piperidin-4-yl)methyl)-7-methylpyrrolo[2,1-f][1,2,4]triazin-4(3H)-one] as the compound, how does the pIC50 read?
Answer: 5.00 to 6.00

Question: With `CN(C)C(=O)c1ccc(-c2ccc(C(=O)N3CCC(O)(Cn4cnn5cccc5c4=O)CC3)c(Cl)c2)cc1` [Compound I-78, 3′-chloro-4′-(4-hydroxy-4-((4-oxopyrrolo[2,1-f][1,2,4]triazin-3(4H)-yl)methyl)piperidine-1-carbonyl)-N,N-dimethyl-[1,1′-biphenyl]-4-carboxamide] as the compound, how does the pIC50 read?
Answer: < 5.00

Question: How did the pIC50 turn out when `O=C(c1ccc(-c2ccc(C(=O)N3CCC(O)(Cn4cnn5cccc5c4=O)CC3)c(Cl)c2)cc1)N1CCCCC1` [Compound I-79, 3-((1-(3-chloro-4′-(piperidine-1-carbonyl)-[1,1′-biphenyl]-4-carbonyl)-4-hydroxypiperidin-4-yl)methyl)pyrrolo[2,1-f][1,2,4]triazin-4(3H)-one] was run?
Answer: 5.00 to 6.00

Question: With `O=C(c1ccc(Oc2ccccc2)cc1)N1CCC(O)(Cn2cnn3cccc3c2=O)CC1` [Compound I-80, 3-((4-hydroxy-1-(4-phenoxybenzoyl)piperidin-4-yl)methyl)pyrrolo[2,1-f][1,2,4]triazin-4(3H)-one] as the compound, how does the pIC50 read?
Answer: < 5.00

Question: With `CC(=O)Nc1cc2c(=O)n(CC3(O)CCN(C(=O)C[C@@H](C)c4ccccc4)CC3)cnn2c1` [Compound I-81, (R)-N-(3-((4-hydroxy-1-(3-phenylbutanoyl)piperidin-4-yl)methyl)-4-oxo-3,4-dihydropyrrolo[2,1-f][1,2,4]triazin-6-yl)acetamide] as the compound, how does the pIC50 read?
Answer: 6.00 to 6.70

Question: `CNC(=O)Nc1cc2c(=O)n(CC3(O)CCN(C(=O)C[C@@H](C)c4ccccc4)CC3)cnn2c1` [Compound I-82, (R)-1-(3-((4-hydroxy-1-(3-phenylbutanoyl)piperidin-4-yl)methyl)-4-oxo-3,4-dihydropyrrolo[2,1-f][1,2,4]triazin-6-yl)-3-methylurea] was tested. Which pIC50 did it give?
Answer: 6.00 to 6.70

Question: With `Cc1cc2c(=O)n(CC3(O)CCN(C(=O)C(C)Cc4ccccc4)CC3)cnn2c1` (centres unmarked) [Compound I-84, 3-((4-hydroxy-1-(2-methyl-3-phenylpropanoyl)piperidin-4-yl)methyl)-6-methylpyrrolo[2,1-f][1,2,4]triazin-4(3H)-one] as the compound, how does the pIC50 read?
Answer: 5.00 to 6.00

Question: `O=C(Nc1cccc(Cl)c1)Nc1cc2c(=O)n(CC3(O)CCN(C(=O)C4CC4)CC3)cnn2c1` [Compound I-85, 1-(3-chlorophenyl)-3-(3-((1-(cyclopropanecarbonyl)-4-hydroxypiperidin-4-yl)methyl)-4-oxo-3,4-dihydropyrrolo[2,1-f][1,2,4]triazin-6-yl)urea] was tested. Which pIC50 did it give?
Answer: < 5.00

Question: With `Cc1cccc(NC(=O)Nc2cc3c(=O)n(CC4(O)CCN(C(=O)C5CC5)CC4)cnn3c2)c1` [Compound I-86, 1-(3-((1-(cyclopropanecarbonyl)-4-hydroxypiperidin-4-yl)methyl)-4-oxo-3,4-dihydropyrrolo[2,1-f][1,2,4]triazin-6-yl)-3-(m-tolyl)urea] as the compound, how does the pIC50 read?
Answer: < 5.00

Question: With `O=C(NCc1ccc(F)cc1)Nc1cc2c(=O)n(CC3(O)CCN(C(=O)C4CC4)CC3)cnn2c1` [Compound I-87, 1-(3-((1-(cyclopropanecarbonyl)-4-hydroxypiperidin-4-yl)methyl)-4-oxo-3,4-dihydropyrrolo[2,1-f][1,2,4]triazin-6-yl)-3-(4-fluorobenzyl)urea] as the compound, how does the pIC50 read?
Answer: < 5.00

Question: `O=C(Nc1ccc(F)cc1)Nc1cc2c(=O)n(CC3(O)CCN(C(=O)C4CC4)CC3)cnn2c1` [Compound I-88, 1-(3-((1-(cyclopropanecarbonyl)-4-hydroxypiperidin-4-yl)methyl)-4-oxo-3,4-dihydropyrrolo[2,1-f][1,2,4]triazin-6-yl)-3-(4-fluorophenyl)urea] was tested. Which pIC50 did it give?
Answer: < 5.00

Question: With `Cc1ccc(NC(=O)Nc2cc3c(=O)n(CC4(O)CCN(C(=O)C5CC5)CC4)cnn3c2)cc1` [Compound I-89, 1-(3-((1-(cyclopropanecarbonyl)-4-hydroxypiperidin-4-yl)methyl)-4-oxo-3,4-dihydropyrrolo[2,1-f][1,2,4]triazin-6-yl)-3-(p-tolyl)urea] as the compound, how does the pIC50 read?
Answer: < 5.00

Question: With `O=C(Nc1ccc2c(c1)CCC2)Nc1cc2c(=O)n(CC3(O)CCN(C(=O)C4CC4)CC3)cnn2c1` [Compound I-90, 1-(3-((1-(cyclopropanecarbonyl)-4-hydroxypiperidin-4-yl)methyl)-4-oxo-3,4-dihydropyrrolo[2,1-f][1,2,4]triazin-6-yl)-3-(2,3-dihydro-1H-inden-5-yl)urea] as the compound, how does the pIC50 read?
Answer: < 5.00

Question: With `O=C(NCc1ccc(Cl)cc1)Nc1cc2c(=O)n(CC3(O)CCN(C(=O)C4CC4)CC3)cnn2c1` [Compound I-91, 1-(4-chlorobenzyl)-3-(3-((1-(cyclopropanecarbonyl)-4-hydroxypiperidin-4-yl)methyl)-4-oxo-3,4-dihydropyrrolo[2,1-f][1,2,4]triazin-6-yl)urea] as the compound, how does the pIC50 read?
Answer: < 5.00

Question: With `Cc1ccc(CNC(=O)Nc2cc3c(=O)n(CC4(O)CCN(C(=O)C5CC5)CC4)cnn3c2)cc1` [Compound I-92, 1-(3-((1-(cyclopropanecarbonyl)-4-hydroxypiperidin-4-yl)methyl)-4-oxo-3,4-dihydropyrrolo[2,1-f][1,2,4]triazin-6-yl)-3-(4-methylbenzyl)urea] as the compound, how does the pIC50 read?
Answer: < 5.00

Question: With `O=C(Nc1cc(F)cc(F)c1)Nc1cc2c(=O)n(CC3(O)CCN(C(=O)C4CC4)CC3)cnn2c1` [Compound I-93, 1-(3-((1-(cyclopropanecarbonyl)-4-hydroxypiperidin-4-yl)methyl)-4-oxo-3,4-dihydropyrrolo[2,1-f][1,2,4]triazin-6-yl)-3-(3,5-difluorophenyl)urea] as the compound, how does the pIC50 read?
Answer: < 5.00

Question: How did the pIC50 turn out when `O=C(NCc1ccccc1F)Nc1cc2c(=O)n(CC3(O)CCN(C(=O)C4CC4)CC3)cnn2c1` [Compound I-94, 1-(3-((1-(cyclopropanecarbonyl)-4-hydroxypiperidin-4-yl)methyl)-4-oxo-3,4-dihydropyrrolo[2,1-f][1,2,4]triazin-6-yl)-3-(2-fluorobenzyl)urea] was run?
Answer: < 5.00

Question: `C[C@@H](NC(=O)Nc1cc2c(=O)n(CC3(O)CCN(C(=O)C4CC4)CC3)cnn2c1)c1ccccc1` [Compound I-95, (R)-1-(3-((1-(cyclopropanecarbonyl)-4-hydroxypiperidin-4-yl)methyl)-4-oxo-3,4-dihydropyrrolo[2,1-f][1,2,4]triazin-6-yl)-3-(1-phenylethyl)urea] was tested. Which pIC50 did it give?
Answer: < 5.00

Question: `O=C(Nc1cccc(F)c1)Nc1cc2c(=O)n(CC3(O)CCN(C(=O)C4CC4)CC3)cnn2c1` [Compound I-96, 1-(3-((1-(cyclopropanecarbonyl)-4-hydroxypiperidin-4-yl)methyl)-4-oxo-3,4-dihydropyrrolo[2,1-f][1,2,4]triazin-6-yl)-3-(3-fluorophenyl)urea] was tested. Which pIC50 did it give?
Answer: < 5.00

Question: How did the pIC50 turn out when `Cc1c(F)cccc1NC(=O)Nc1cc2c(=O)n(CC3(O)CCN(C(=O)C4CC4)CC3)cnn2c1` [Compound I-97, 1-(3-((1-(cyclopropanecarbonyl)-4-hydroxypiperidin-4-yl)methyl)-4-oxo-3,4-dihydropyrrolo[2,1-f][1,2,4]triazin-6-yl)-3-(3-fluoro-2-methylphenyl)urea] was run?
Answer: < 5.00

Question: `Cc1cccc(NC(=O)Nc2cc3c(=O)n(CC4(O)CCN(C(=O)C5CC5)CC4)cnn3c2)c1C` [Compound I-98, 1-(3-((1-(cyclopropanecarbonyl)-4-hydroxypiperidin-4-yl)methyl)-4-oxo-3,4-dihydropyrrolo[2,1-f][1,2,4]triazin-6-yl)-3-(2,3-dimethylphenyl)urea] was tested. Which pIC50 did it give?
Answer: < 5.00

Question: `Cc1ccc(NC(=O)Nc2cc3c(=O)n(CC4(O)CCN(C(=O)C5CC5)CC4)cnn3c2)c(C)c1` [Compound I-99, 1-(3-((1-(cyclopropanecarbonyl)-4-hydroxypiperidin-4-yl)methyl)-4-oxo-3,4-dihydropyrrolo[2,1-f][1,2,4]triazin-6-yl)-3-(2,4-dimethylphenyl)urea] was tested. Which pIC50 did it give?
Answer: < 5.00

Question: How did the pIC50 turn out when `N#Cc1ccc(NC(=O)Nc2cc3c(=O)n(CC4(O)CCN(C(=O)C5CC5)CC4)cnn3c2)cc1` [Compound I-100, 1-(4-cyanophenyl)-3-(3-((1-(cyclopropanecarbonyl)-4-hydroxypiperidin-4-yl)methyl)-4-oxo-3,4-dihydropyrrolo[2,1-f][1,2,4]triazin-6-yl)urea] was run?
Answer: < 5.00

Question: `COc1cccc(NC(=O)Nc2cc3c(=O)n(CC4(O)CCN(C(=O)C5CC5)CC4)cnn3c2)c1` [Compound I-101, 1-(3-((1-(cyclopropanecarbonyl)-4-hydroxypiperidin-4-yl)methyl)-4-oxo-3,4-dihydropyrrolo[2,1-f][1,2,4]triazin-6-yl)-3-(3-methoxyphenyl)urea] was tested. Which pIC50 did it give?
Answer: < 5.00

Question: `O=C(Nc1cc2c(=O)n(CC3(O)CCN(C(=O)C4CC4)CC3)cnn2c1)c1ccc(C(F)(F)F)cc1` [Compound I-102, N-(3-((1-(cyclopropanecarbonyl)-4-hydroxypiperidin-4-yl)methyl)-4-oxo-3,4-dihydropyrrolo[2,1-f][1,2,4]triazin-6-yl)-4-(trifluoromethyl)benzamide] was tested. Which pIC50 did it give?
Answer: < 5.00

Question: `O=C(Cc1c(Cl)cccc1Cl)Nc1cc2c(=O)n(CC3(O)CCN(C(=O)C4CC4)CC3)cnn2c1` [Compound I-103, N-(3-((1-(cyclopropanecarbonyl)-4-hydroxypiperidin-4-yl)methyl)-4-oxo-3,4-dihydropyrrolo[2,1-f][1,2,4]triazin-6-yl)-2-(2,6-dichlorophenyl)acetamide] was tested. Which pIC50 did it give?
Answer: < 5.00

Question: How did the pIC50 turn out when `O=C(COc1ccc(OC(F)(F)F)cc1)Nc1cc2c(=O)n(CC3(O)CCN(C(=O)C4CC4)CC3)cnn2c1` [Compound I-104, N-(3-((1-(cyclopropanecarbonyl)-4-hydroxypiperidin-4-yl)methyl)-4-oxo-3,4-dihydropyrrolo[2,1-f][1,2,4]triazin-6-yl)-2-(4-(trifluoromethoxy)phenoxy)acetamide] was run?
Answer: < 5.00
